Data as given in US11434479B2, “Sialic acid binding polypeptide” (priority 2017, dated 2022).
Positions count from the first letter of the chain named.

Experiments:
[1] = molecular target: T1, Streptococcus pneumoniae NanB fragment (residues 30-697, SEQ ID NO:4) variant Sia-PS5, E541Q (Streptococcus pneumoniae serotype 4, UniProt Q54727, E541Q); assay: Bio-layer Interferometry (BLI) steady-state binding to immobilized oligosaccharides; conditions: in words
T1 construct: exemplified by a NanB fragment (residues 30-697); poly-histidine; made in house; host or cells: pET28a+ based plasmid
T1 sequence (Q54727 30-692 E541Q): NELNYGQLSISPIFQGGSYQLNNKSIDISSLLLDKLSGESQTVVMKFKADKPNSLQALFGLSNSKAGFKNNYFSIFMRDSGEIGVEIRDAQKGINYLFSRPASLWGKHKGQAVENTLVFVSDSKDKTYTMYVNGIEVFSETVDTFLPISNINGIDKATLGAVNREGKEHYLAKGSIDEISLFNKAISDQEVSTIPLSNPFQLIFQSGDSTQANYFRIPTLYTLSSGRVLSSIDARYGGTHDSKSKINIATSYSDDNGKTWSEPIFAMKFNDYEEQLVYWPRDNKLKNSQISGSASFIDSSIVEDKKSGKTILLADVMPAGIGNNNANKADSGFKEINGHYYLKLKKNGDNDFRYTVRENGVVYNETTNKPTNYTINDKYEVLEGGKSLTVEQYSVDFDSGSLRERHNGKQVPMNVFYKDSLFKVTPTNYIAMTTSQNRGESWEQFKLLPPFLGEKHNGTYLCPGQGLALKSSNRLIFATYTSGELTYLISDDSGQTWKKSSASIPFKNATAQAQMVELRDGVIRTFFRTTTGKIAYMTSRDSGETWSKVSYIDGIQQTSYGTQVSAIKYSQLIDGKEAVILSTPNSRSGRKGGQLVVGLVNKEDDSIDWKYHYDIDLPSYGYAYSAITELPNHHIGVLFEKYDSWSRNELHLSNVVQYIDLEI
Text: (§1) Lsp=lactose (no sialic acid), 3′SL=α2,3-sialyllactose, 6′SL=α2,6-sialyllactose, GD3=GD3 oligosaccharide that contains a terminal α2,8-linked Neu5Ac residue and an internal α2,3-linked Neu5Ac residue.
(§2) The pan-specific sialic acid-recognizing affinity reagent of the invention is exemplified by a NanB fragment (residues 30-697; SEQ ID NO:4) with a single mutation. Exemplary mutation sites include Y653, D270, and E541. Exemplary pan-specific affinity reagents, each having a single mutation in the NanB GH domain as noted, are shown in Table 2 and include Sia-PS1 (Y653F), Sia-PS2 (D270A), Sia-PS3 (D270N), Sia-PS4 (E541A), and Sia-PS5 (E541Q). […] They reduce (Sia-PS2 and Sia-PS3) or effectively eliminate (Sia-PS1, Sia-PS4, and Sia-PS5) catalytic activity, and they broaden specificity for sialic acid ligand binding. The pan-specific sialic acid-recognizing affinity reagent we chose for further validation study was Sia-PS1 that contains the Y653F at active site residue Tyr653. This one mutation, which involves removal of a single hydroxyl group, not only eliminates enzyme activity, but astonishingly introduces pan-specific binding into the mutated, inactivated enzyme, despite its distance from the carbohydrate binding module (CBM) domain of the NanB.
(§3) The flowchart presented in FIG. 2 outlines schematically the methods employed in Example I and II to screen, optimize and select the Lectenz® candidates. The specificity and affinity of potential Lectenz® candidates is evaluated through structurally-guided site-specific and/or site-saturation mutagenesis assays designed to enable the selection of optimal clones. Bio-layer Interferometry (BLI) is used to determine the binding kinetics and affinities for binding to glycans and glycoproteins. Affinity chromatography is performed by immobilizing the Lectenz® candidates in a column format to evaluate their ability to fractionate sialylated- and asialo-glycans and glycoconjugates. All promising Lectenz® candidates are screened against the glycan array at the CFG, which currently contains over 600 O- and N-linked glycans.
(§4) Steady-state binding constants between Lectenz® candidates and sialic acid ligands were measured by BLI.

[2] = molecular target: T2, Streptococcus pneumoniae NanB fragment (residues 30-697, SEQ ID NO:4) variant Sia-PS4, E541A (Streptococcus pneumoniae serotype 4, UniProt Q54727, E541A); assay: as above; conditions: in words
T2 construct: exemplified by a NanB fragment (residues 30-697); poly-histidine; made in house; host or cells: pET28a+ based plasmid
T2 sequence (Q54727 30-692 E541A): T1 sequence (Q54727 30-692 E541Q) with Q512A
Text: as §1, §2, §3, §4

[3] = molecular target: MAL (Maackia amurensis leukoagglutinin); conditions: reported values [16, 17]; cited from earlier work
[4] = molecular target: SNA (S. Nigra lectin); conditions: reported values [16]; cited from earlier work

| Compound | binding affinity [1] | KD value [2] | binding affinity [2] | Kd [3] | Kd [4] |
| --- | --- | --- | --- | --- | --- |
| CC(=O)N[C@H]1[C@H]([C@H](O)[C@H](O)CO)O[C@@](O[C@H]2[C@@H](O)[C@@H](CO)O[C@@H](O[C@H]3[C@H](O)[C@@H](O)C(O)O[C@@H]3CO)[C@@H]2O)(C(=O)O)C[C@@H]1O (stereo partly drawn) [3′SL, α2,3-sialyllactose] | micromolar or sub-micromolar | sub-micromolar | micromolar or sub-micromolar | 1 to 3 µM | – |
| CC(=O)N[C@H]1[C@H]([C@H](O)[C@H](O)CO)O[C@@](OC[C@H]2O[C@@H](O[C@H]3[C@H](O)[C@@H](O)C(O)O[C@@H]3CO)[C@H](O)[C@@H](O)[C@H]2O)(C(=O)O)C[C@@H]1O (stereo partly drawn) [6′SL, 6′-sialyllactose (Neu5Acα2,6Galβ1, 4Glcβ, or 6′SL)] | micromolar or sub-micromolar | – | micromolar or sub-micromolar | – | 0.6 to 0.9 µM |
| CC(=O)N[C@H]1[C@H]([C@H](O)[C@H](O)CO)O[C@@](O[C@H](CO)[C@@H](O)[C@@H]2O[C@@](O[C@H]3[C@@H](O)[C@@H](CO)O[C@@H](O[C@H]4[C@H](O)[C@@H](O)C(O)O[C@@H]4CO)[C@@H]3O)(C(=O)O)C[C@H](O)[C@H]2NC(C)=O)(C(=O)O)C[C@@H]1O (stereo partly drawn) [GD3, Neu5Acα2,8Neu5Acα2,3Galβ1, 4Glcβ] | micromolar or sub-micromolar | – | micromolar or sub-micromolar | – | – |
